Measured values: ChEMBL document CHEMBL4145544, “Discovery and optimization of 1-(1H-indol-1-yl)ethanone derivatives as CBP/EP300 bromodomain inhibitors for the treatment of castration-resistant prostate cancer” (Eur J Med Chem, 2018)
The source made the active and inactive calls. The rule behind the calls is not given here.

What was measured:
CREB-binding protein [1] = target: T1, CREB-binding protein (Homo sapiens, UniProt Q92793); test: Inhibition of biotinylated-H4KAc4 binding to human His6-tagged CBP (R1081 to G1197 residues) expressed in Escherichia coli BL21(DE3) after 2.5 hrs by luminescence-based AlphaScreen assay
[2] = target: T2, Histone acetyltransferase p300 (Homo sapiens, UniProt Q09472); test: Inhibition of biotinylated-H4KAc4 binding to human His6-tagged EP300 (A1040 to G1161 residues) expressed in Escherichia coli BL21(DE3) after 2.5 hrs by luminescence-based AlphaScreen assay
[3] = target: T3, Bromodomain-containing protein 4 (Homo sapiens, UniProt O60885); test: Inhibition of biotinylated-H4KAc4 binding to human His6-tagged BRD4 bromodomain-1 (N44 to E168 residues) expressed in Escherichia coli BL21(DE3) after 2.5 hrs by luminescence-based AlphaScreen assay
[4] = target: T4, Transcription initiation factor TFIID subunit 1 (Homo sapiens, UniProt P21675); test: Inhibition of biotinylated-H4KAc4 binding to human His6-tagged TAF-1 (R1377 to D1503 residues) expressed in Escherichia coli BL21(DE3) after 2.5 hrs by luminescence-based AlphaScreen assay
[5] = target: T5, Bromodomain adjacent to zinc finger domain protein 2B (Homo sapiens, UniProt Q9UIF8); test: Inhibition of biotinylated-H4KAc4 binding to human His6-tagged BAZ2B (S1858 to S1972 residues) expressed in Escherichia coli BL21(DE3) after 2.5 hrs by luminescence-based AlphaScreen assay
[6] = target: T6, Bromodomain-containing protein 9 (Homo sapiens, UniProt Q9H8M2); test: Inhibition of biotinylated-H4KAc4 binding to human His6-tagged BRD9 (L14 to Q134 residues) expressed in Escherichia coli BL21(DE3) after 2.5 hrs by luminescence-based AlphaScreen assay
T6 sequence (Q9H8M2 whole entry): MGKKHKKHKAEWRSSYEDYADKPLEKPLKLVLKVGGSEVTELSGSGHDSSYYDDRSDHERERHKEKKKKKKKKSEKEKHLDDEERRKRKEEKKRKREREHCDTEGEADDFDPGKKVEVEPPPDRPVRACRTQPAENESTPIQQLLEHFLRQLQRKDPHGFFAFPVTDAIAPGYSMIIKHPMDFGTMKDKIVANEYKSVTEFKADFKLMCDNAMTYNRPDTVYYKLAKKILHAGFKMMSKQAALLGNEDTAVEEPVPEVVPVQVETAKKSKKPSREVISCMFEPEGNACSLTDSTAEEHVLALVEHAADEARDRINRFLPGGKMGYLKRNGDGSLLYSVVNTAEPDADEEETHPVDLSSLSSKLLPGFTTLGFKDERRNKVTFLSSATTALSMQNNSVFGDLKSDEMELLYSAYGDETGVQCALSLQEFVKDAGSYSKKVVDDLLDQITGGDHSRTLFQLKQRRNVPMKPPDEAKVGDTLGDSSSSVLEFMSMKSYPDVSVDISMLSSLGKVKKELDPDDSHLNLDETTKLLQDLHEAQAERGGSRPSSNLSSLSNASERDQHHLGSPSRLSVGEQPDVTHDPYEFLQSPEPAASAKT

[7] = target: T7, Transcription intermediary factor 1-alpha (Homo sapiens, UniProt O15164); test: Inhibition of biotinylated-H4KAc4 binding to human His6-tagged TIF-1 (G896 to E1014 residues) expressed in Escherichia coli BL21(DE3) after 2.5 hrs by luminescence-based AlphaScreen assay
T7 sequence (O15164 whole entry): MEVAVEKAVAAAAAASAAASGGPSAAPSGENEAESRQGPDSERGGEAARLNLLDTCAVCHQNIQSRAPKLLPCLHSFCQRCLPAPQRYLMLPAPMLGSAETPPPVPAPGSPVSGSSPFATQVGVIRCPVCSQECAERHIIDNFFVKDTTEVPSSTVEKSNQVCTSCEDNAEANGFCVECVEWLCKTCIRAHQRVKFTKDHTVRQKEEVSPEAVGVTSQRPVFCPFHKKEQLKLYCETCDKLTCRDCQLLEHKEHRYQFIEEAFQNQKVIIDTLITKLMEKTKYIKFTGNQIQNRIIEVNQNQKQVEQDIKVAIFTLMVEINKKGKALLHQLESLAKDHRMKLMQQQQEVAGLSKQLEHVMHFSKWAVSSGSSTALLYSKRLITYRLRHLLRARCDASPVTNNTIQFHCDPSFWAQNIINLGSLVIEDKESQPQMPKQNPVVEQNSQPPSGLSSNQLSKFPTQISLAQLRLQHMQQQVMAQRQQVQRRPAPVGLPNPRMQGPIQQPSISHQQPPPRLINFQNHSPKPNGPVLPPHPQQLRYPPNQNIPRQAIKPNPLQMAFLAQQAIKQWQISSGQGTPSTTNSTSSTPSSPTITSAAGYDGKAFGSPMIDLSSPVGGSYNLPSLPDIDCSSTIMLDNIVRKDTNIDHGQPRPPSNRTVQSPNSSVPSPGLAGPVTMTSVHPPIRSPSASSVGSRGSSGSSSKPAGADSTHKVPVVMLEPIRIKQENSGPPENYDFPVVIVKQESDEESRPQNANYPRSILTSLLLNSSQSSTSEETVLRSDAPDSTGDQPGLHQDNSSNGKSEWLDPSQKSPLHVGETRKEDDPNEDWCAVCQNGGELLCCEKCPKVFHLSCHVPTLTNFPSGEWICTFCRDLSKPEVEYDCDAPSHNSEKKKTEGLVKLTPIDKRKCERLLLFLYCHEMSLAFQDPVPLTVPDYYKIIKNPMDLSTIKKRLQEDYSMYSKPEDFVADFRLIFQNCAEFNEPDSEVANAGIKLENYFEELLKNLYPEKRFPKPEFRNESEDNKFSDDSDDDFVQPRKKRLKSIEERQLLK

[8] = target: T8, Histone acetyltransferase KAT2B (Homo sapiens, UniProt Q92831); test: Inhibition of biotinylated-H4KAc4 binding to human His6-tagged PCAF (G715 to D831 residues) expressed in Escherichia coli BL21(DE3) after 2.5 hrs by luminescence-based AlphaScreen assay
Target sequence in this assay (Q92831 whole entry, the tested form may be a part): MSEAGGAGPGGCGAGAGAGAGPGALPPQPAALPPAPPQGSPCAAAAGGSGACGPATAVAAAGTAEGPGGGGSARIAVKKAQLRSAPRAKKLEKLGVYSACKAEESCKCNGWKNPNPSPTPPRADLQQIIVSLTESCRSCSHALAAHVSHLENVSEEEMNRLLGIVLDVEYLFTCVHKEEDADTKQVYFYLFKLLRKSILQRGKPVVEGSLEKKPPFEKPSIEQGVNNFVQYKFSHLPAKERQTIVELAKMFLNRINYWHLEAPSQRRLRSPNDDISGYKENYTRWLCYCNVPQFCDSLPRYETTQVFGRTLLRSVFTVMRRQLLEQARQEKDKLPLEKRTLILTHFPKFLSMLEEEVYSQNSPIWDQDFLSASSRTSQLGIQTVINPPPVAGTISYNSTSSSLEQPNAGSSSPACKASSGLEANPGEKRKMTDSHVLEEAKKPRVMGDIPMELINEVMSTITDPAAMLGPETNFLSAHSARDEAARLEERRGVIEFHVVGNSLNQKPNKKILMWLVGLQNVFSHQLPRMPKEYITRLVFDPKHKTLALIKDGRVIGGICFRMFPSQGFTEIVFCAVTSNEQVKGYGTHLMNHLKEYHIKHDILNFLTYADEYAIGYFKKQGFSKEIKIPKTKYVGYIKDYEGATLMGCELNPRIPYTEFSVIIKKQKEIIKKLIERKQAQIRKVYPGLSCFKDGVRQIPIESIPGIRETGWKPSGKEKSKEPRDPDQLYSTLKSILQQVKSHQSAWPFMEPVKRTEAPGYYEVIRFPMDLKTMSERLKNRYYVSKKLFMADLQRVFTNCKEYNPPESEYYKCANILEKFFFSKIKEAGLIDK

CREB-binding protein [9] = target: T1, CREB-binding protein; test: Binding affinity to human His6-tagged CBP (R1081 to G1197 residues) expressed in Escherichia coli BL21(DE3) assessed as change in melting temperature at 200 uM after 30 mins by SYPRO orange dye based fluorescence assay
[10] = target: T2, Histone acetyltransferase p300; test: Binding affinity to human His6-tagged EP300 (A1040 to G1161 residues) expressed in Escherichia coli BL21(DE3) assessed as change in melting temperature at 200 uM after 30 mins by SYPRO orange dye based fluorescence assay
[11] = target: T8, Histone acetyltransferase KAT2B; test: Binding affinity to human His6-tagged PCAF (G715 to D831 residues) expressed in Escherichia coli BL21(DE3) assessed as change in melting temperature at 200 uM after 30 mins by SYPRO orange dye based fluorescence assay
Target sequence in this assay (Q92831 whole entry, looked up, the tested form may be a part): as the sequence (Q92831 whole entry, the tested form may be a part) above

[12] = target: Bromodomain-containing protein 9 (Homo sapiens) (UniProt Q9H8M2); test: Binding affinity to human His6-tagged BRD9 (L14 to Q134 residues) expressed in Escherichia coli BL21(DE3) assessed as change in melting temperature at 200 uM after 30 mins by SYPRO orange dye based fluorescence assay
[13] = target: T4, Transcription initiation factor TFIID subunit 1; test: Binding affinity to human His6-tagged TAF-1 (R1377 to D1503 residues) expressed in Escherichia coli BL21(DE3) assessed as change in melting temperature at 200 uM after 30 mins by SYPRO orange dye based fluorescence assay
[14] = target: T5, Bromodomain adjacent to zinc finger domain protein 2B; test: Binding affinity to human His6-tagged BAZ2B (S1858 to S1972 residues) expressed in Escherichia coli BL21(DE3) assessed as change in melting temperature at 200 uM after 30 mins by SYPRO orange dye based fluorescence assay
[15] = target: Transcription intermediary factor 1-alpha (Homo sapiens) (UniProt O15164); test: Binding affinity to human His6-tagged TIF-1 (G896 to E1014 residues) expressed in Escherichia coli BL21(DE3) assessed as change in melting temperature at 200 uM after 30 mins by SYPRO orange dye based fluorescence assay
[16] = target: T3, Bromodomain-containing protein 4; test: Binding affinity to human His6-tagged BRD4 bromodomain-1 (N44 to E168 residues) expressed in Escherichia coli BL21(DE3) assessed as change in melting temperature at 200 uM after 30 mins by SYPRO orange dye based fluorescence assay
LNCaP = test: Antiproliferative activity against human LNCAP cells after 72 hrs by Cell-Titer Glo assay; format: functional, cell-based; details: lncap
CWR22R [17] = test: Anticlonogenic activity against human 22Rv1 cells after 14 days by crystal violet staining based assay; format: functional, cell-based
LNCaP C4-2B = test: Anticlonogenic activity against human C4-2B cells after 14 days by crystal violet staining based assay; format: functional, cell-based
CWR22R [18] = system: CWR22R
Description: Antiproliferative activity against human 22Rv1 cells after 72 hrs by Cell-Titer Glo assay

[19] = target: T3, Bromodomain-containing protein 4; test: Inhibition of biotinylated-H4KAc4 binding to human His6-tagged BRD4 bromodomain-1 (N44 to E168 residues) expressed in Escherichia coli BL21(DE3) at 50 uM after 2.5 hrs by luminescence-based AlphaScreen assay relative to control
[20] = target: T5, Bromodomain adjacent to zinc finger domain protein 2B; test: Inhibition of biotinylated-H4KAc4 binding to human His6-tagged BAZ2B (S1858 to S1972 residues) expressed in Escherichia coli BL21(DE3) at 50 uM after 2.5 hrs by luminescence-based AlphaScreen assay relative to control

T5 sequence (Q9UIF8 whole entry, the tested form may be a part): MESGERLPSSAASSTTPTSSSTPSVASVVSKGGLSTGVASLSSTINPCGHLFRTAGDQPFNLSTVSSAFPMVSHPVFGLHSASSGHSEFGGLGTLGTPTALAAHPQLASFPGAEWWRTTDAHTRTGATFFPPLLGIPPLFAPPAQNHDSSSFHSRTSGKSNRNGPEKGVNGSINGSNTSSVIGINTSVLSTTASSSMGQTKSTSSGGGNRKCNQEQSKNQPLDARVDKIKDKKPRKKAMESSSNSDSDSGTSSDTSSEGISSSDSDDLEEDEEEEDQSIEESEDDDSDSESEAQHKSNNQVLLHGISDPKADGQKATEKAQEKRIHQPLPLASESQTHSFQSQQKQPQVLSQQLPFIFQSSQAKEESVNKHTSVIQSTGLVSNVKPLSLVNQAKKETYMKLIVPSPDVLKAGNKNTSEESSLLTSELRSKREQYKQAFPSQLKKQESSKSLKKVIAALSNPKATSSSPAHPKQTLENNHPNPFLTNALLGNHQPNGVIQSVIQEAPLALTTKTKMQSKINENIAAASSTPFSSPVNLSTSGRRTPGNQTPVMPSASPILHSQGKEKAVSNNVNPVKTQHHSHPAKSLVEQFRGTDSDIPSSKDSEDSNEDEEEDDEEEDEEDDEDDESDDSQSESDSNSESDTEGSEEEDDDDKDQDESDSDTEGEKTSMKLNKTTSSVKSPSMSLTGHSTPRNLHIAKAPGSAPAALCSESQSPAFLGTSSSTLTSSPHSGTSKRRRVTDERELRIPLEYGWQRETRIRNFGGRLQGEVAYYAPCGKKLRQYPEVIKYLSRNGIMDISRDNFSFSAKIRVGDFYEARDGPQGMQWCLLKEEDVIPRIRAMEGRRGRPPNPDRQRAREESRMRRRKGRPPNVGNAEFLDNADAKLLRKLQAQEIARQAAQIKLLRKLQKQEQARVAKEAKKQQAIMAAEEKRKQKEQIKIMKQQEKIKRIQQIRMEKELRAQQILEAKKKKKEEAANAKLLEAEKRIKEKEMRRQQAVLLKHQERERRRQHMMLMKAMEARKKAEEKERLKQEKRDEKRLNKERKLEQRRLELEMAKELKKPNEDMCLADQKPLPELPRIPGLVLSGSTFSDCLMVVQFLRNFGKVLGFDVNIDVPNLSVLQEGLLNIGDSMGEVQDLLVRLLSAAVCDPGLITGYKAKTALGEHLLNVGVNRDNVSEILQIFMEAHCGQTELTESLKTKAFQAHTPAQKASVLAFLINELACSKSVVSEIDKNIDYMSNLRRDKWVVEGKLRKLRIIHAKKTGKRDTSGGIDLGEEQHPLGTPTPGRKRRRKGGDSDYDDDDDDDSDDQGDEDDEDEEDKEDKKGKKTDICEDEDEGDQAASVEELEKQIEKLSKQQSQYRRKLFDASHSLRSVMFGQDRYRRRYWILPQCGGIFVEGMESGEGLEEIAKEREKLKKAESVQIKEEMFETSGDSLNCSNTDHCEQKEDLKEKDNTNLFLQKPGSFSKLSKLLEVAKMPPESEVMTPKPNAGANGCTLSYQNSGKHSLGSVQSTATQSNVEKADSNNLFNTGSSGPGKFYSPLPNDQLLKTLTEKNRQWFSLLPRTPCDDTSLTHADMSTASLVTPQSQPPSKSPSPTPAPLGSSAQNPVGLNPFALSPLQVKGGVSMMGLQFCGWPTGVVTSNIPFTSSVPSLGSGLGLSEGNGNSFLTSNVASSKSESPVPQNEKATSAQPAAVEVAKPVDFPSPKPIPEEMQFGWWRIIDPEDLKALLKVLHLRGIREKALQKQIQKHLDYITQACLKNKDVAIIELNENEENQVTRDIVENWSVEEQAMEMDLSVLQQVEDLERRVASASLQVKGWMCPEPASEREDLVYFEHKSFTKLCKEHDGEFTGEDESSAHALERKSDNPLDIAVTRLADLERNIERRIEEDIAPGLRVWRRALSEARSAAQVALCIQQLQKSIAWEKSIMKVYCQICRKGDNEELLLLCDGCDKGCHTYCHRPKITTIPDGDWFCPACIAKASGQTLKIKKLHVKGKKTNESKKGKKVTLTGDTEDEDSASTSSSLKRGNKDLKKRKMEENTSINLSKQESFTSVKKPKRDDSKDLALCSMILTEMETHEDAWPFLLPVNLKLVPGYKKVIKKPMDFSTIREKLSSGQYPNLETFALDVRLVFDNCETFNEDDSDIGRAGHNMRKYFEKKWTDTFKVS
T4 sequence (P21675 whole entry, the tested form may be a part): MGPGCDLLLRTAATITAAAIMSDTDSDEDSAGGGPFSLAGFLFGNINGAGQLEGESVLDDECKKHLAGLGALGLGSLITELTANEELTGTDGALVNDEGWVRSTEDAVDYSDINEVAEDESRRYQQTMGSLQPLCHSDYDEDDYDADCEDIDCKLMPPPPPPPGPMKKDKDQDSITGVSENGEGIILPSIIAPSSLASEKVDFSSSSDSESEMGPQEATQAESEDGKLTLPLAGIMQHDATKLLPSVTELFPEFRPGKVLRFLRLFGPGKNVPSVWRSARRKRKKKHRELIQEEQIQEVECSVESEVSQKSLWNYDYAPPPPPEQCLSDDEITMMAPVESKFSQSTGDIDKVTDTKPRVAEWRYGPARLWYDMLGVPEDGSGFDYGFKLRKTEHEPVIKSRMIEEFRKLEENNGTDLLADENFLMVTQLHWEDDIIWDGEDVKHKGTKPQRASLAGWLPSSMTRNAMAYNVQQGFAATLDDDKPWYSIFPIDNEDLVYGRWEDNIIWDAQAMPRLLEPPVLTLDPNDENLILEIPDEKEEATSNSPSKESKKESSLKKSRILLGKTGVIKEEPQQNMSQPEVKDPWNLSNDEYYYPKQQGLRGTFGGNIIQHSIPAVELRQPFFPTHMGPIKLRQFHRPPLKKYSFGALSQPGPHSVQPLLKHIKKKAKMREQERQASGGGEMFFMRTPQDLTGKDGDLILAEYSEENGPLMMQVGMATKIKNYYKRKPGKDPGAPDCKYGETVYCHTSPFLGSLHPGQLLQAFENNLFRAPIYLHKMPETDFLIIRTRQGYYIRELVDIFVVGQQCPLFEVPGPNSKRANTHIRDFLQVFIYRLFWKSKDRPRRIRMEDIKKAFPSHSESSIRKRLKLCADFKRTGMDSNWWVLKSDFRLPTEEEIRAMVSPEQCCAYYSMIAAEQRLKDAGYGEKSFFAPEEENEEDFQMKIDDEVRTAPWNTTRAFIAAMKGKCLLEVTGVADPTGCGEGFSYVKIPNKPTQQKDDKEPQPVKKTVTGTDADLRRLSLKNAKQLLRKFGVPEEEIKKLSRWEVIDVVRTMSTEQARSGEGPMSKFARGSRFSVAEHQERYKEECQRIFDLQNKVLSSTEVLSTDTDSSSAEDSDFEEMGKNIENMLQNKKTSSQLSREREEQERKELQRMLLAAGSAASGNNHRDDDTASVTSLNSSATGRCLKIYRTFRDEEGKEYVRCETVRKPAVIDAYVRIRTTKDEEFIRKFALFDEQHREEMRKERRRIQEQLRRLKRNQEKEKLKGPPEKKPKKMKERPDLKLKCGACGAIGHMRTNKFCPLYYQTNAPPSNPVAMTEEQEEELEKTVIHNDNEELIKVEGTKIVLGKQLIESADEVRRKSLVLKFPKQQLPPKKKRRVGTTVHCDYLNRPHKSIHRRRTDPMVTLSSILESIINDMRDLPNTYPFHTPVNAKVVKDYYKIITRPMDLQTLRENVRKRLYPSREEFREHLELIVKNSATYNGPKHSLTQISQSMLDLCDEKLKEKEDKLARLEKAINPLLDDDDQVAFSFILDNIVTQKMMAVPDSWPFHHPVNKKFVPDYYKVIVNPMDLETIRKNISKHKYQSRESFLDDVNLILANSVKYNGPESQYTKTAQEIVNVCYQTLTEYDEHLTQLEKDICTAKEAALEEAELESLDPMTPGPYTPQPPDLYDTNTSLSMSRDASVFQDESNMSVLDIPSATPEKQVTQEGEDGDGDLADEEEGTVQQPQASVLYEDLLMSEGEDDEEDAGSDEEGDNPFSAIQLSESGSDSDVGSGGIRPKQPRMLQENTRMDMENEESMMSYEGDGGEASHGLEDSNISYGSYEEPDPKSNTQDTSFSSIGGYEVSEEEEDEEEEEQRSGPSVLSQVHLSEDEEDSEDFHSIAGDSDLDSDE

COc1ccc2c(c1)c(C(=O)Nc1cc(C(=O)O)cc(-c3cnn(C)c3)c1)cn2C(C)=O
IC50 (CREB-binding protein [1]): 0.16 µM | IC50 [2]: 0.51 µM | IC50 [3]: > 20 µM | IC50 [4]: > 20 µM | IC50 [5]: > 20 µM | IC50 [6]: > 20 µM | IC50 [7]: > 20 µM | IC50 [8]: > 20 µM | ΔTm (CREB-binding protein [9]): 5.7 °C | ΔTm [10]: 5.7 °C | ΔTm [11]: -1.5 °C | ΔTm [12]: -0.9 °C | ΔTm [13]: 0.9 °C | ΔTm [14]: 1.5 °C | ΔTm [15]: -0.3 °C | ΔTm [16]: 1.1 °C | IC50 (LNCaP): Not Active | Activity (CWR22R [17]): inactive | Activity (LNCaP C4-2B): inactive | IC50 (CWR22R [18]): Not Active

COc1ccc(CCc2nc3cc(-c4c(C)noc4C)ccc3n2C[C@H](C)N2CCOCC2)cc1Cl
inhibition [19]: 62% | inhibition [20]: 41% | IC50 [3]: > 20 µM | IC50 [4]: > 20 µM | IC50 [5]: > 20 µM | IC50 [6]: > 20 µM | IC50 [7]: > 20 µM | IC50 [8]: > 20 µM | IC50 (LNCaP): Not Active | IC50 (CWR22R [18]): Not Active

CC(=O)n1cc(C(=O)Nc2cc(COC3CCCCO3)cc(C(=O)O)c2)c2ccccc21 (stereo unspecified)
IC50 (CREB-binding protein [1]): 1 µM | IC50 [2]: 2.51 µM | IC50 [3]: > 20 µM | IC50 [4]: > 20 µM | IC50 [5]: > 20 µM | IC50 [6]: > 20 µM | IC50 [7]: > 20 µM | IC50 [8]: > 20 µM

CC(=O)n1cc(C(=O)Nc2cc(C(=O)O)cc(-c3ccco3)c2)c2ccccc21
IC50 (CREB-binding protein [1]): 0.65 µM | IC50 [2]: 0.97 µM | IC50 [3]: 2.19 µM | IC50 [4]: > 20 µM | IC50 [5]: 1.69 µM | IC50 [6]: > 20 µM | IC50 [7]: 10.4 µM | IC50 [8]: > 20 µM

COc1ccc2c(c1)c(C(=O)Nc1cc(C(=O)O)cc(-c3ccco3)c1)cn2C(C)=O
IC50 (CREB-binding protein [1]): 0.14 µM | IC50 [2]: 1.78 µM | IC50 [3]: > 20 µM | IC50 [4]: > 20 µM | IC50 [5]: 12.2 µM | IC50 [6]: > 20 µM | IC50 [7]: > 20 µM | IC50 [8]: > 20 µM | IC50 (LNCaP): Not Active | IC50 (CWR22R [18]): Not Active
